Test results reported in US20180346505A1, “MONONUCLEOTIDES HAVING A BIOREVERSIBLE DISULFIDE GROUP” (priority 2014, published 2018).
Read-outs that look alike come from different tables or passages of the source.

Legend:
GT1b (Con1) HCV replicon = experiment: HCV replicon assay, wild type GT1b (Con1), luciferase based, stable format; format: cell-based, hepatitis C virus; conditions: Huh-7 cells
Protocol: (§1) The antiviral activity of the test compounds was assessed in the wild type GT1b (Con1), GT1a (H77), and GT1b/2a, GT1b/3a, GT1b/4a and GT1b/5a NS5B chimeric replicons, as well as the NS5B mutant replicons listed in Table 2a and 2b.
(§2) All the replicon assays were luciferase based in Huh-7 cells, either in stable format (GT1b and GT1a) or by transient transfection by electroporation (chimeric and mutant replicons). For a standard HCV replicon assay, stable or transiently transfected Huh-7 cells were seeded in 96-well plates (5,000 cells/well), cultured in DMEM containing 10% FBS, and incubated at 37° C., 5% CO2. On the following day, test compounds were diluted with assay media and added to the appropriate wells (final DMSO concentration in the cell culture medium was 0.5%). Assay reference positive control was included in each run to ensure assay performance. Cells were incubated at 37° C., 5% CO2 for 72 hours, at which time the cells were still sub-confluent. The antiviral activity was determined by measuring replicon reporter firefly luciferase activity using Bright Glo kit in accordance with the protocol provided by the supplier (Promega). The toxicity of the test compounds was assessed by CytoTox-1 cell proliferation assay (Promega). The half maximal effective concentration (EC50) and the half maximal toxic concentration (TC50) values were calculated using the GraphPad Prism software.

[1] = system: GT1b/3a NS5B chimeric replicon; experiment: HCV replicon assay, GT1b/3a NS5B chimeric replicon, transient transfection; format: cell-based, hepatitis C virus
Protocol: as §1
(§3) To generate HCV NS5B chimeric replicons, the GT1 b replicon was used as a backbone with the NS5B gene replaced with the NS5B gene of GT2a, GT3a, GT4a and GT5a derived from clinical isolates. These NS5B genes were cloned into the GT1b backbone and were confirmed by sequencing.
as §2

Huh-7 cells = experiment: Toxicity by CytoTox-1 cell proliferation assay (TC50) and selectivity index; format: cell-based; conditions: TC50 by CytoTox-1 cell proliferation assay over replicon EC50, Huh-7 cells
Protocol: as §2

[2] = system: GT1b/2a NS5B chimeric replicon; experiment: HCV replicon assay, GT1b/2a NS5B chimeric replicon, transient transfection; format: cell-based, hepatitis C virus; conditions: read-out: GT2a EC50; GT1b/2a NS5B chimeric replicon, Huh-7 cells, luciferase, 72 hours
Protocol: as §1, §3, §2

GT1a (H77) HCV replicon = experiment: HCV replicon assay, wild type GT1a (H77), luciferase based, stable format; format: cell-based, hepatitis C virus; conditions: Huh-7 cells, 72 hours
Protocol: as §1, §2

[3] = system: GT1b/5a NS5B chimeric replicon; experiment: HCV replicon assay, GT1b/5a NS5B chimeric replicon, transient transfection; format: cell-based, hepatitis C virus; conditions: read-out: GT5a EC50; GT1b/5a NS5B chimeric replicon, Huh-7 cells, luciferase, 72 hours
Protocol: as §1, §3, §2

[4] = system: GT1b/4a NS5B chimeric replicon; experiment: HCV replicon assay, GT1b/4a NS5B chimeric replicon, transient transfection; format: cell-based, hepatitis C virus; conditions: read-out: GT4a EC50; GT1b/4a NS5B chimeric replicon, Huh-7 cells, luciferase, 72 hours
Protocol: as §1, §3, §2

[5] = Nucleoside phosphoester stability in simulated intestinal fluid; format: in vitro ADME
Protocol: Test compounds at 2 μM were incubated at 37° C. with simulated intestinal fluid (SIF), which contains 0.68% (w/v) monobasic potassium phosphate and 1% (w/v) pancreatin in ultra-pure water (pH 6.8). Duplicate samples were used. Samples were removed at 0, 15, 30, 60, 120, 360 and 1440 min, immediately mixed with cold acetonitrile containing an internal standard (IS), and stored at −80° C. before analysis. Chlorambucil was used as a positive control. Samples were analyzed by a LC/MS/MS method, and disappearance of test compound was assessed by comparison of peak area ratios of analyte/IS and reported as % test compound remaining at each time point.

[6] = Nucleoside phosphoester stability in simulated gastric fluid; format: in vitro ADME; conditions: simulated gastric fluid pH 1.2, 2 μM, 37° C.
Protocol: Test compounds at 2 μM were incubated at 37° C. with simulated gastric fluid (SGF, 0.2% (w/v) sodium chloride in 0.7% (v/v) hydrochloric acid, deionized water, 0.3% pepsin (w/v), pH 1.2). Duplicate samples were used. Samples were removed at 0, 15, 30, 60, 120, 360 and 1440 min, immediately mixed with cold acetonitrile containing internal standard (IS), and stored at −80° C. before analysis. Omeprazole was used as a positive control. Samples were analyzed by LC/MS/MS method, and disappearance of test compound was assessed by comparison of peak area ratios of analyte/IS and reported as % test compound remaining at each time point.

[7] = Hepatitis C virus, GT1B, Huh-7, 72 h
[8] = Hepatitis C virus, Huh-7, 72 h, read-out: GT3a EC50, GT1b/3a NS5B chimeric replicon, Huh-7 cells, luciferase, 72 hours
[9] = read-out: GT3a EC50, GT1b/3a NS5B chimeric replicon, Huh-7 cells, luciferase, 72 hours

With `CC(C)(C)SSc1ccccc1CCOP1(=O)OC[C@H]2O[C@@H](n3cnc4c(N)nc(N)nc43)[C@](C)(O)[C@@H]2O1` (single isomer, unassigned) [Compound 16A] the EC50 (GT1b (Con1) HCV replicon; [7]) was 20 nM, the EC50 [1, 8] was 6 nM and the “Selectivity Index (TC50/EC50)” value (Huh-7 cells) was greater than 500.
For `CC(C)(C)SSc1ccccc1CCOP1(=O)OC[C@H]2O[C@@H](n3ccc(N)nc3=O)[C@](C)(O)[C@@H]2O1` (single isomer, unassigned) [Compound 10A], the EC50 (GT1b (Con1) HCV replicon; [7]) was 40 nM, the EC50 [1, 8] was 41 nM and the “Selectivity Index (TC50/EC50)” value (Huh-7 cells) was greater than 500.
For `CC(C)(C)SSCCCCOP1(=O)OC[C@H]2O[C@@H](n3ccc(=O)[nH]c3=O)[C@](C)(F)[C@@H]2O1` (single isomer, unassigned) [Compound 6A], the EC50 (GT1b (Con1) HCV replicon; [7]) was 840 nM and the “Selectivity Index (TC50/EC50)” value (Huh-7 cells) was greater than 12.
For `CC(C)(C)SSc1ccccc1CCOP1(=O)OC[C@H]2O[C@@H](n3ccc(N)nc3=O)[C@](C)(N)[C@@H]2O1` (single isomer, unassigned) [Compound 19B], the EC50 [2] was 780 nM, the EC50 (GT1a (H77) HCV replicon) was 858 nM and the EC50 [3] was 1350 nM. It also gave an EC50 (GT1b (Con1) HCV replicon; 72 hours) of 1030 nM, an EC50 [4] of 344 nM and an EC50 [1, 9] of 1340 nM.
In the case of `CC(C)(C)SSc1ccccc1CCOP1(=O)OC[C@H]2O[C@@H](n3ccc(N)nc3=O)[C@](C)(O)[C@@H]2O1` (single isomer, unassigned) [Compound 10B], the EC50 (GT1b (Con1) HCV replicon; 72 hours) is reported as 21 nM, the EC50 [1, 9] is reported as 21 nM and the “Selectivity Index (TC50/EC50)” value (Huh-7 cells) is reported as greater than 500.
In the case of `CC(C)(C)SSc1ccccc1CCOP1(=O)OC[C@H]2O[C@@H](n3ccc(N)nc3=O)[C@](C)(F)[C@@H]2O1` (single isomer, unassigned) [Compound 9B], the “% Remaining” value ([5]; simulated gi fluid, 0 h, 2 μM, pH 6.8) is reported as 100.00%, the “% Remaining” value ([5]; simulated gi fluid, 0.25 h, 2 μM, pH 6.8) is reported as 98.51% and the “% Remaining” value ([5]; simulated gi fluid, 0.5 h, 2 μM, pH 6.8) is reported as 91.63%. The “% Remaining” value ([5]; simulated gi fluid, 1 h, 2 μM, pH 6.8) was 99.30%, the “% Remaining” value ([5]; simulated gi fluid, 2 h, 2 μM, pH 6.8) was 97.42% and the “% Remaining” value ([5]; simulated gi fluid, 6 h, 2 μM, pH 6.8) was 72.51%. The “% Remaining” value ([5]; simulated gi fluid, 24 h, 2 μM, pH 6.8) was 33.69%, the EC50 (GT1b (Con1) HCV replicon; 72 hours) was 13 nM and the “% Remaining” value ([6]; 0 min) was 100.00%. For the same compound, the “% Remaining” value ([6]; 15 min) was 95.72%, the “% Remaining” value ([6]; 30 min) was 98.51% and the “% Remaining” value ([6]; 60 min) was 100.39%. For the same compound, the “% Remaining” value ([6]; 120 min) was 92.48%, the “% Remaining” value ([6]; 360 min) was 65.99% and the “% Remaining” value ([6]; 1440 min) was 21.04%. The EC50 [1, 9] was 29 nM and the “Selectivity Index (TC50/EC50)” value (Huh-7 cells) was greater than 500.
`CC(C)(C)SSc1ccccc1CCOP1(=O)OC[C@H]2O[C@@H](n3ccc(N)nc3=O)[C@](C)(N)[C@@H]2O1` (single isomer, unassigned) [Compound 19A] showed an EC50 [2] of 151 nM, an EC50 (GT1a (H77) HCV replicon) of 169 nM and an EC50 [3] of 288 nM. The EC50 (GT1b (Con1) HCV replicon; 72 hours) was 177 nM, the EC50 [4] was 77 nM and the EC50 [1, 9] was 228 nM.
In the case of `COc1ccc2[nH]c([S+]([O-])Cc3ncc(C)c(OC)c3C)nc2c1` (stereo not shown) [Omeprazole, reference compound], the “% Remaining” value ([6]; 0 min) is reported as 100.00%, the “% Remaining” value ([6]; 15 min) is reported as 79.48% and the “% Remaining” value ([6]; 30 min) is reported as 66.64%. The “% Remaining” value ([6]; 60 min) was 34.79%, the “% Remaining” value ([6]; 120 min) was 33.00% and the “% Remaining” value ([6]; 360 min) was 6.17%. For the same compound, the “% Remaining” value ([6]; 1440 min) was 1.24%.
In the case of `O=C(O)CCCc1ccc(N(CCCl)CCCl)cc1` [Chlorambucil, reference compound], the “% Remaining” value ([5]; simulated intestinal fluid pH 6.8, 2 μM, 37° C., 0 min) is reported as 100.00%, the “% Remaining” value ([5]; simulated intestinal fluid pH 6.8, 2 μM, 37° C., 15 min) is reported as 81.31% and the “% Remaining” value ([5]; simulated intestinal fluid pH 6.8, 2 μM, 37° C., 30 min) is reported as 64.39%. The “% Remaining” value ([5]; simulated intestinal fluid pH 6.8, 2 μM, 37° C., 60 min) was 34.82%, the “% Remaining” value ([5]; simulated intestinal fluid pH 6.8, 2 μM, 37° C., 120 min) was 5.08% and the “% Remaining” value ([5]; simulated intestinal fluid pH 6.8, 2 μM, 37° C., 360 min) was 0.00%. For the same compound, the “% Remaining” value ([5]; simulated intestinal fluid pH 6.8, 2 μM, 37° C., 1440 min) was 0.00%.
For `CC(C)(C)SSc1ccccc1CCOP1(=O)OC[C@H]2O[C@@H](n3cnc4c(N)nc(N)nc43)[C@](C)(O)[C@@H]2O1` (single isomer, unassigned) [Compound 16B], the EC50 (GT1b (Con1) HCV replicon; 72 hours) was 40 nM, the EC50 [1, 9] was 5 nM and the “Selectivity Index (TC50/EC50)” value (Huh-7 cells) was greater than 250.
In the case of `CC(C)(C)SSCCCCOP1(=O)OC[C@H]2O[C@@H](n3ccc(=O)[nH]c3=O)[C@](C)(F)[C@@H]2O1` (single isomer, unassigned) [Compound 6B], the EC50 (GT1b (Con1) HCV replicon; 72 hours) is reported as 730 nM and the “Selectivity Index (TC50/EC50)” value (Huh-7 cells) is reported as greater than 14.
In the case of `CC(C)(C)SSc1ccccc1CCOP1(=O)OC[C@H]2O[C@@H](n3ccc(=O)[nH]c3=O)[C@](C)(O)[C@@H]2O1` (stereo partly shown) [Compound 8A], the EC50 (GT1b (Con1) HCV replicon; [7]) is reported as 10 nM, the EC50 [1, 8] is reported as 6 nM and the “Selectivity Index (TC50/EC50)” value (Huh-7 cells) is reported as greater than 500.
In the case of `CC(C)(C)SSc1ccccc1CCOP1(=O)OC[C@H]2O[C@@H](n3ccc(=O)[nH]c3=O)[C@](C)(F)[C@@H]2O1` (stereo partly shown) [Compound 7B], the EC50 (GT1b (Con1) HCV replicon; [7]) is reported as 20 nM, the EC50 [1, 8] is reported as 14 nM and the “Selectivity Index (TC50/EC50)” value (Huh-7 cells) is reported as greater than 500.
In the case of `CC(C)(CCO)SSc1ccccc1CCOP1(=O)OC[C@H]2O[C@@H](n3ccc(=O)[nH]c3=O)[C@](C)(F)[C@@H]2O1` (stereo partly shown) [Compound 18A], the EC50 (GT1b (Con1) HCV replicon; [7]) is reported as 50 nM and the “Selectivity Index (TC50/EC50)” value (Huh-7 cells) is reported as greater than 200.
